In ChEMBL document CHEMBL1151948, “Lactones from Angiopteris caudatiformis” (J Nat Prod, 2009):

System: HeLa
Assay: Cytotoxicity against human HeLa cells after 48 hrs by MTT assay
Assay type: functional, cell-based

C[C@H](O)[C@H]1OC(=O)C[C@H]1O[C@H]1C=CC(=O)O[C@H]1C [ANGIOPTERLACTONE A]
IC50: 68.8 µM
